Test results reported in PMC8518391, “Synthesis and Biological Evaluation of Dantrolene‐Like Hydrazide and Hydrazone Analogues as Multitarget Agents for Neurodegenerative Diseases” (Chemmedchem, 2021).

What was measured:
[1] = RP-HPLC lipophilicity index log k’; type: physicochemical; conditions: MeOH/phosphate buffer pH 7.4; methanol/PBS 60:40 v/v
Excerpt: To investigate a possible correlation between MAO inhibitory potency and lipophilicity,[7] we calculated log P with three different programs (ChemDraw 15.0; ALOG PS 2.1; ChemSketch 2017, see Table S1 in Supporting Information) and compared the calculated values with experimental lipophilicity indexes as assessed by reversed‐phase (RP) HPLC in isocratic conditions for the majority of compounds. The log of capacity factors (log k’) measured by RP‐HPLC using a mixture of methanol/PBS (60 : 40, v/v) as the mobile phase are reported in Tables 1 and 2, along with Clog P values calculated with ChemDraw. These calculated lipophilicity descriptors correlated with the experimental log k’ values (n=13, r ^2=0.901) better than the other log Ps calculated by ALOG PS and ChemSketch computational tools (r ^2 equal 0.705 and 0.568, respectively). As shown by the scatter plots in Figure 4 and Figure S1 in Supporting Information, there is no evident correlation trend between MAO A/B inhibition data and lipophilicity calculated by the expert system implemented in ChemDraw for compounds achieving finite IC50 values.
Log k’ values (k’=(tr‐t0)/t0) and purity determinations were carried out using a Phenomenex Gemini C18 4.6×150 mm, with 3 μm size particles, built on a Waters double pump HPLC system in isocratic conditions. Injection volumes were 10 μL, flow rate was 0.5 mL/min, and detection was performed with UV (λ=254 and 370 nm). Samples were prepared by dissolving 0.1 mg/mL of the solute in 10 % v/v DMSO and 90 % v/v methanol. Retention times (tr) were measured at least from three separate injections, and dead time (t0) was the retention time of deuterated methanol. The mobile phase was filtered through a Supelco Nylon‐66 membrane 0.45 μm (Merck Life Science Srl, Milan, Italy) before use. For each reference compound, the average tr of three consecutive injections of 10 μL of sample was used to calculate the log k’ values. The eluent consisted of five different mixtures of methanol and PBS buffer 10 mM at pH 7.4, with methanol/buffer ratios ranging from 80 : 20 to 60 : 40 v/v.

hMAO B [2] = target: T1, hMAO B (Homo sapiens, UniProt P27338); parameters: method as in PMID 31775359; conditions: cited from earlier work
T1 construct: purchased Sigma Aldrich
T1 sequence (P27338 1-520): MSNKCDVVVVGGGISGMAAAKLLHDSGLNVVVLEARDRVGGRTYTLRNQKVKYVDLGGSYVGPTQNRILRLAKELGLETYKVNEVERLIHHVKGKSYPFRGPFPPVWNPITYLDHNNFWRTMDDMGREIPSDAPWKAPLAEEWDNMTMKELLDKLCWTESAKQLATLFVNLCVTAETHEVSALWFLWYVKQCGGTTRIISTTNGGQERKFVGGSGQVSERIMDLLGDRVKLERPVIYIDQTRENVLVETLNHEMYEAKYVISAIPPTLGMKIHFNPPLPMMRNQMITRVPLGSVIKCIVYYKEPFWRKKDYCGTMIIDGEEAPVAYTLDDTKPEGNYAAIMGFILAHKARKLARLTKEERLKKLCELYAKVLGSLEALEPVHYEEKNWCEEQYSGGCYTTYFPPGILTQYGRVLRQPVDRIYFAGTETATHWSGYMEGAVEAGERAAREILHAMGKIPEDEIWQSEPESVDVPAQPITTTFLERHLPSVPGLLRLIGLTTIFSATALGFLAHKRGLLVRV

SH-SY5Y cells = test: DCF-DA assay of ROS production induced by dopamine in SH-SY5Y cells; type: cell-based, human; conditions: 10 nM dopamine + 10 nM compound
Method: The immortalized neuroblastoma cells are a widely used model for neuroprotection assays, while dopamine at a concentration of 10 nM acts as an inducer of oxidative stress,[8, 9] being metabolized by MAOs to form hydrogen peroxide. Once hydrolyzed and oxidized, DCF acts as the fluorescing probe of the oxidative stress (OS) state of cells. In the presence of an antioxidant, or even of a MAO inhibitor, ROS burden is lowered and DCF fluorescence decreased. […] Its activity is superimposable to that of phenelzine, a nonselective MAO inhibitor used as a positive control in this test.[10] The same experiment performed on dantrolene in our previous work gave similar results.[1]
Reagents for cell cultures were purchased from Life Technologies (ThermoFisher Scientific, Waltham, MA, USA) unless otherwise stated. […]
ROS production in SH‐SY5Y cell line was detected using Cellular Reactive Oxygen Species Detection Assay Kit ab186027 (Abcam, Cambridge, UK), as previously described.[1] […] After incubation and washing, DCF‐DA was added, the plate was incubated, washed again with PBS, and the fluorescence read every 15 min in a 60 min time interval at 535 nm (excitation at 485 nm) using the Tecan Infinite M1000 Pro plate reader.

hAChE = target: T2, hAChE (Homo sapiens, UniProt P22303); test: biochemical; conditions: read-out: % inhibition at 10 μM hAChE
T2 construct: purchased Sigma Aldrich
T2 sequence (P22303 32-614): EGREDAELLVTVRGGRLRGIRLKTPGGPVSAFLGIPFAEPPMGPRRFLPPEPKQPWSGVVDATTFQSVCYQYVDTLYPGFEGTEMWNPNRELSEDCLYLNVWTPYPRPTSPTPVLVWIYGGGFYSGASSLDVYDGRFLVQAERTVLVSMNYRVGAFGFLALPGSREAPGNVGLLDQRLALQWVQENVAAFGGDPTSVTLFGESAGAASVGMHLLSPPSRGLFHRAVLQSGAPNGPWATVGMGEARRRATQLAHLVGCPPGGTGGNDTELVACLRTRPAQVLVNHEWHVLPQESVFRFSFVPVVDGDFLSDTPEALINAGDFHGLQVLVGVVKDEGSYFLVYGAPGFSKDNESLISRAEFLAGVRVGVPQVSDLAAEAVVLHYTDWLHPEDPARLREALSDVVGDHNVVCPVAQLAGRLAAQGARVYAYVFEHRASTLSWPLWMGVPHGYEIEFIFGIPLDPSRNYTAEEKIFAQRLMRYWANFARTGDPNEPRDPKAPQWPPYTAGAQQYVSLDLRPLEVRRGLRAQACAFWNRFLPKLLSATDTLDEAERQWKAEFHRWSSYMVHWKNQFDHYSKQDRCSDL
Excerpt: (§1) Readings were made with Infinite M1000 Pro plate reader (Tecan, Cernusco s.N., Italy) and statistical regressions with Prism software (GraphPad Prism version 5.00 for Windows, GraphPad Software, San Diego, CA, USA).

hMAO A = target: T3, hMAO A (Homo sapiens, UniProt P21397); test: biochemical
T3 construct: purchased Sigma Aldrich
T3 sequence (P21397 1-527): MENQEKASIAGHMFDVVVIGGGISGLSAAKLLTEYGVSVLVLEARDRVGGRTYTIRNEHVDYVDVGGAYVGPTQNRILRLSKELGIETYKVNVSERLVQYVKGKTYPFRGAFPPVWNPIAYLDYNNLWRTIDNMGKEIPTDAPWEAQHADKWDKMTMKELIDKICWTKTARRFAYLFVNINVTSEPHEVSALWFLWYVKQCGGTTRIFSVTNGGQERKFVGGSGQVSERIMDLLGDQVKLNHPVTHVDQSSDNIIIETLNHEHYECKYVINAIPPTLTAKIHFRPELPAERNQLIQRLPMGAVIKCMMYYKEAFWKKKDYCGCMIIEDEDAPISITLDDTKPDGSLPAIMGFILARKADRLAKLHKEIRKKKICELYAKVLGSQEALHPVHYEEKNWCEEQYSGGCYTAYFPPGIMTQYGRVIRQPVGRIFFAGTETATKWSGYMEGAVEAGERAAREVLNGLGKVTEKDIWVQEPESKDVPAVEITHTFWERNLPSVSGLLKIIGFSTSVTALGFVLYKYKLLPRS
Excerpt: as §1

hMAO B [3] = target: T1, hMAO B; test: biochemical; type: biochemical
[4] = Hydrolytic stability in buffered solution (PBS pH 7.4, 37 °C); type: physicochemical; conditions: 20 μM in 10 mM PBS pH 7.4, 37 °C, 6 h incubation
Method: The hydrolytic stability of some representative imino/hydrazone/hydrazide derivatives was determined in buffered aqueous media. […]. […]. The hydrolytic degradation of 9 in its starting reagents was confirmed by the comparison of the chromatograms of 9 and 2‐chloro‐4‐hydroxyaniline, obtained in the same chromatographic conditions (Figure 6B).
Stability studies in buffered solution were performed following an already described procedure,[23] on a Phenomenex C18 column (150×4.6 mm i.d., 3 μm particle size; Phenomenex, Castel Maggiore, Italy) using a mobile phase consisting of a mixture of methanol‐water (75 : 25 v/v, with aqueous formic acid 0.1 %). The used flow rate was 0.500 mL/min while the injection volume was 20 μL. Wavelength of UV‐Vis detector was adjusted at 254 nm. The chemical stability was evaluated in a phosphate buffer solution pH 7.4 (10 mM HPO4 ^2−/H2PO4 ^−; 100 mM NaCl) at 37 °C. Five different concentrations from 0.5 μM to 20 μM were studied in a 2 h time range (data not shown). Each concentration (0.5, 1, 5, 10 and 20 μM) was tested in triplicate starting from 3 different stocks solution (1 mM) prepared separately. The time range was extended to 6 h only for the samples at 20 μM concentration (Figure 6a).

| SMILES | log k’ (logarithm of capacity factor, RP-HPLC) [1] | Ki human MAO B (hMAO B [2]) | reduction of ROS oxidation of DCF (SH-SY5Y cells) | inhibition at 10 µM (hAChE) [%] | IC50 (hMAO A) [nM] | IC50 (hMAO B [3]) [nM] | mechanism of hMAO B inhibition (hMAO B [3]; Michaelis-Menten / Lineweaver-Burk) | selectivity for MAO B over MAO A (hMAO B [3]; from IC50 values) [fold] | Ki (hMAO B [3]; inhibition kinetics without preincubation, kynuramine substrate) [nM] | degradation percentage [4] [%] |
| --- | --- | --- | --- | --- | --- | --- | --- | --- | --- | --- |
| O=C1CN(/N=C/c2ccc(-c3ccc([N+](=O)[O-])cc3)o2)C(O)=N1 [DAN, Dantrolene] | 0.115 | low micromolar range | – | – | – | – | – | – | – | – |
| N#Cc1ccc(-c2ccc(/C=N/c3ccc(O)cc3Cl)o2)cc1 [Compound 9] | 0.782 | – | effective in reducing ROS oxidation of DCF | 30 | 3460 ± 250 | 680 ± 50 | competitive | 5 | 500 ± 60 | 76 |
